Measured values taken from PMC3845904 (Chemical research in toxicology, 2009).
Values joined by “and” are separate entries in the source; they are usually repeats but may differ in a detail not shown here. Identical values can stand only once.

Columns and labels:
human P450 1B1 [1] = target: T1, human P450 1B1 (Homo sapiens, UniProt Q16678); test: Spectral binding titration; conditions: for Reverse Type I spectra ΔAmax/Ks (magnitude of spectral binding) / Reverse Type I spectra ΔAmax: purified P450 1B1 1.0 μM, ND = not detected at 100 μM; for Reverse Type I spectra ΔAmax: means ± SEs
T1 sequence (Q16678 1-543): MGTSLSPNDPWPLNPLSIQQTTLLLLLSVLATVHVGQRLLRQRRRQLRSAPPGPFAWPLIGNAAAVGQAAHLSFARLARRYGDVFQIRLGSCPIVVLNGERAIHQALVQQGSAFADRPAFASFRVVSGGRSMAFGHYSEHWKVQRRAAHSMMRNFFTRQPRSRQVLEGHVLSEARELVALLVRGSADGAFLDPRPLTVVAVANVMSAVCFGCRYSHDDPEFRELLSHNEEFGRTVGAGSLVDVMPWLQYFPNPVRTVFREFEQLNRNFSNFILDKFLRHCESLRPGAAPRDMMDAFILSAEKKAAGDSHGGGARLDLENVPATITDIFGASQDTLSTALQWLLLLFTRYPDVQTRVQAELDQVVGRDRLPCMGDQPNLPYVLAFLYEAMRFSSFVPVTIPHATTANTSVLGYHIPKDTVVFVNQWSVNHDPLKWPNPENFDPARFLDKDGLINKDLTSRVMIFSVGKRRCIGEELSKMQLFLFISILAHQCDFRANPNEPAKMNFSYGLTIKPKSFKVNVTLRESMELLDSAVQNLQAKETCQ

human P450 1B1 [2] = target: T1, human P450 1B1; test: biochemical
P450 1A2 = P450 1A2 (Homo sapiens, UniProt P05177); test: Inhibition of EROD activity catalyzed by P450 1A2; format: biochemical; conditions: Figure 4
P450 1A2, sequence (P05177 whole entry): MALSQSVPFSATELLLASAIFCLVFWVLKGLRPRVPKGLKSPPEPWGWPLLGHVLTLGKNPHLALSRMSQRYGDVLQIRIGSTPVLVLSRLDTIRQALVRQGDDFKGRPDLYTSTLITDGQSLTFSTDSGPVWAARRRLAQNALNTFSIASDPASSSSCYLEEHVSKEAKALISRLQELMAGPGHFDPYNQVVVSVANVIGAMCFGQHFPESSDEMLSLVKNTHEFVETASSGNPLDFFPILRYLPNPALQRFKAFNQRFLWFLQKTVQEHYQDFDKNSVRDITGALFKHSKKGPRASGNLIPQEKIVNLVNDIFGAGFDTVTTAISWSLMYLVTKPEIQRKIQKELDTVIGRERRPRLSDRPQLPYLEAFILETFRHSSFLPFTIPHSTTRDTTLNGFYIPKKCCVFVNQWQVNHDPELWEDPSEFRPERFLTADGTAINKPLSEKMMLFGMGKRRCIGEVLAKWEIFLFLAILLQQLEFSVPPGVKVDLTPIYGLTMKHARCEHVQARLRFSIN

Row | SMILES | Kd (human P450 1B1 [1]) | Reverse Type I spectra ΔAmax/Ks (magnitude of spectral binding) (human P450 1B1 [1]) | Reverse Type I spectra ΔAmax (human P450 1B1 [1]) | IC50 (human P450 1B1 [2]) | Reverse Type I spectra ΔAmax (human P450 1B1 [1]; listed as Flavone) | spectral interaction with P450 1B1 (in words) (human P450 1B1 [1]; up to 100 μM) | inhibition of P450 1A2 EROD (in words) (P450 1A2)
1 | COc1cccc(-c2cc(=O)c3ccccc3o2)c1 [3MF, 3′-methoxyflavone] | 51000 ± 4100 nM | 0.0006 | 0.029 ± 0.001 | 150 ± 20 nM |  |  | 
2 | C#Cc1cc2ccc3cccc4ccc(c1)c2c34 [2EP, 2-ethynylpyrene] |  | 0.0209 | 0.071 ± 0.001 | 38 ± 4 nM |  |  | 
3 | COc1ccc(-c2cc(=O)c3ccccc3o2)cc1 [4MF, 4′-methoxyflavone] | 66000 ± 11000 nM |  |  | 230 ± 30 nM |  |  | 
4 | Oc1ccc(/C=C/c2cc(O)cc(O)c2)cc1 [resveratrol (Res), resveratrol, reference compound] | 28000 ± 3300 nM | 0.0012 | 0.034 ± 0.004 | 1200 ± 200 nM |  |  | 
5 | C#Cc1ccc2c(ccc3ccccc32)c1 [2EPh, 2-ethynylphenanthrene] |  | 0.0190 | 0.080 ± 0.004 | 210 ± 30 nM |  |  | 
6 | COc1ccc(-c2cc(=O)c3ccccc3o2)cc1OC [34DMF, 3′,4′-dimethoxyflavone] | 24000 ± 3200 nM | 0.0021 | 0.051 ± 0.003 | 260 ± 30 nM |  |  | 
7 | COc1ccc(-c2cc(=O)c3ccc(O)c(O)c3o2)cc1OC [34DM78DHF, 3′,4′-dimethoxy-7,8-dihydroxyflavone] | 190000 ± 17000 nM | 0.0003 | 0.053 ± 0.003 | 19000 ± 2300 nM |  |  | 
8 | C#Cc1cc2cccc3ccc4cccc1c4c32 [4EP, 4-ethynylpyrene] |  | 0.0130 | 0.052 ± 0.004 | 170 ± 30 nM |  |  | 
9 | C#Cc1ccc2ccc3ccccc3c2c1 [3EPh, 3-ethynylphenanthrene] |  | 0.0237 | 0.071 ± 0.001 | 160 ± 20 nM |  |  | 
10 | O=c1cc(-c2ccccc2)oc2ccccc12 [flavone, reference compound] |  | 0.0006 | 0.026 ± 0.002 |  | 0.026 |  | 
11 | COc1cccc(-c2cc(=O)c3ccc(O)c(O)c3o2)c1 [3M78DHF, 3′-methoxy-7,8-dihydroxyflavone] | 140000 ± 15000 nM | 0.0003 | 0.044 ± 0.005 | 3700 ± 500 nM |  |  | 
12 | c1ccc(-c2ccccc2)cc1 [biphenyl, reference compound] | 140000 ± 19000 nM | 0.0003 | 0.037 ± 0.008 | 19000 ± 2300 nM |  |  | 
13 | COc1ccc(-c2cc(=O)c3ccc(O)c(O)c3o2)cc1 [4M78DHF] | 56000 ± 15000 nM | 0.0013 | 0.073 ± 0.009 | 1100 ± 200 nM |  |  | 
14 | C#CCOCc1ccccc1-c1ccccc1 [2BMPE, 2-biphenyl methyl propargyl ether] |  | 0.0009 | 0.130 ± 0.009 |  |  |  | 
15 | COc1ccccc1-c1cc(=O)c2ccccc2o1 [2MF, 2′-methoxyflavone] | 56000 ± 8000 nM | 0.0013 | 0.070 ± 0.005 | 320 ± 60 nM |  |  | 
16 | C#Cc1ccc2ccccc2c1 [2EN, 2-ethynylnaphthalene] |  | 0.0033 | 0.049 ± 0.002 | 1200 ± 200 nM |  |  | 
17 | C#CCOc1ccc(-c2ccc(OCC#C)cc2)cc1 [44BDPE, 4,4-biphenyl dipropargyl ether] |  | 0.0013 | 0.031 ± 0.002 |  |  |  | 
18 | CC#Cc1ccc2ccc3cccc4ccc1c2c34 [1PP, 1-(1-propynyl)pyrene] |  | 0.0156 | 0.042 ± 0.002 | 45 ± 5 nM |  |  | 
19 | c1cc2ccc3cccc4ccc(c1)c2c34 [pyrene, reference compound] | 1300 ± 100 nM | 0.0338 | 0.044 ± 0.001 | 25 ± 3 nM |  |  | 
20 | c1ccc2c(c1)ccc1ccccc12 [Phenanthrene, phenanthrene, reference compound] | 14000 ± 1700 nM | 0.0031 | 0.044 ± 0.002 | 510 ± 100 nM |  |  | 
21 | CC#Cc1cc2ccccc2c2ccccc12 [9PPh, 9-(1-propynyl)phenanthrene] |  | 0.0153 | 0.049 ± 0.002 | 160 ± 30 nM |  |  | 

Row | SMILES | Kd (human P450 1B1 [1]) | Reverse Type I spectra ΔAmax/Ks (magnitude of spectral binding) (human P450 1B1 [1]) | Reverse Type I spectra ΔAmax (human P450 1B1 [1]) | IC50 (human P450 1B1 [2]) | Reverse Type I spectra ΔAmax (human P450 1B1 [1]; listed as Flavone) | spectral interaction with P450 1B1 (in words) (human P450 1B1 [1]; up to 100 μM) | inhibition of P450 1A2 EROD (in words) (P450 1A2)
22 | O=c1cc(-c2ccccc2)oc2ccc3ccccc3c12 [BNF, β–naphthoflavone, reference compound] | 13000 ± 1200 nM | 0.0061 | 0.079 ± 0.009 | 4.1 ± 0.4 nM |  |  | 
23 | C=Cc1ccc2ccc3cccc4ccc1c2c34 [1VP, 1-vinylpyrene] | 4400 ± 300 nM | 0.0209 | 0.092 ± 0.003 | 150 ± 20 nM |  |  | 
24 | COc1cccc(-c2cc(=O)c3c(O)cc(O)cc3o2)c1 [3M57DHF, 3′-methoxy-5,7-dihydroxyflavone] | 20000 ± 3000 nM | 0.0037 | 0.075 ± 0.008 | 110 ± 20 nM |  |  | 
25 | CC#Cc1ccc2ccc3ccccc3c2c1 [3PPh, 3-(1-propynyl)phenanthrene] |  | 0.0194 | 0.060 ± 0.006 | 67 ± 8 nM |  |  | 
26 | C#CCOc1ccccc1-c1ccccc1 [2BPE, 2-biphenyl propargyl ether] |  | 0.0010 | 0.110 ± 0.009 |  |  |  | 
27 | C#Cc1ccc(-c2ccccc2)cc1 [4EB, 4-ethynylbiphenyl] |  | 0.0030 | 0.023 ± 0.001 | 2200 ± 300 nM |  |  | 
28 | COc1ccccc1-c1cc(=O)c2ccc(O)c(O)c2o1 [2M78DHF, 2′-methoxy-7,8-dihydroxyflavone] |  |  |  | > 100000 nM |  | did not show any detectable spectral interaction | 
29 | O=c1cc(-c2ccccc2)oc2c1ccc1ccccc12 [ANF, α-naphthoflavone, reference compound] |  | 0.0061 | 0.073 ± 0.007 |  |  |  | 
30 | Oc1cc(O)cc(/C=C/c2ccc(O)c(O)c2)c1 [Piceatannol (Pice), Piceatannol, reference compound] | 21000 ± 1100 nM | 0.0016 | 0.034 ± 0.001 | 830 ± 140 nM |  |  | 
31 | C#CCOCc1ccc(-c2ccccc2)cc1 [4BMPE, 4-biphenyl methyl propargyl ether] |  | 0.0055 | 0.071 ± 0.002 |  |  |  | 
32 | C#Cc1ccc2ccc3cccc4ccc1c2c34 [1EP, 1-ethynylpyrene] |  | 0.0169 | 0.049 ± 0.005 | 36 ± 5 nM |  |  | 
33 | c1ccc2ccccc2c1 [naphthalene, reference compound] |  |  |  | ~26000 nM and 26000 nM |  |  | weak
34 | C#CCOc1ccc(-c2ccccc2)cc1 [4BPE, 4-biphenyl propargyl ether] |  | 0.0007 | 0.056 ± 0.010 |  |  |  | 
35 | COc1ccc(-c2cc(=O)c3c(O)cc(O)cc3o2)cc1OC [34DM57DHF, 3′,4′-dimethoxy-5,7-dihydroxyflavone] | 2000 ± 300 nM | 0.0180 | 0.037 ± 0.002 |  |  |  | 
36 | COc1ccccc1-c1cc(=O)c2c(O)cc(O)cc2o1 [2M57DHF, 2′-methoxy-5,7-dihydroxyflavone] | 64000 ± 10000 nM | 0.0016 | 0.100 ± 0.011 | 240 ± 20 nM |  |  | 
37 | C#Cc1cc2ccccc2c2ccccc12 [9EPh, 9-ethynylphenanthrene] |  | 0.0197 | 0.071 ± 0.004 | 120 ± 10 nM |  |  | 
38 | CC#Cc1ccc2c(ccc3ccccc32)c1 [2PPh, 2-(1-propynyl)phenanthrene] |  | 0.0305 | 0.067 ± 0.005 | 150 ± 20 nM |  |  | 
39 | COc1cc(C=Cc2ccc(OC)cc2OC)cc(OC)c1 [TMS, 2,4,3′,5′-tetramethoxystilbene, reference compound] |  | 0.0110 |  |  |  |  | 
40 | C#CCOc1ccccc1-c1ccccc1OCC#C [22BDPE, 2,2-biphenyl dipropagyl ether] |  | 0.0006 | 0.018 ± 0.001 |  |  |  | 
41 | C[C@]12CC[C@@H]3c4ccc(O)cc4CC[C@H]3[C@@H]1CC[C@@H]2O [E2, 17β-estradiol, reference compound] |  | 0.0005 | 0.039 ± 0.007 |  |  |  | 
